According to ChEMBL document CHEMBL5303573, “Mapping human microbiome drug metabolism by gut bacteria and their genes” (Nature, 2019):

Tests used:
[1] = The drug is tested on Clostridium scindens strain: ATCC35704 for biotransformation. The drug concentrations were measured before and after a 12-h incubation by liquid-chromatography-coupled mass spectrometry (LC–MS); conditions: 2 µM
[2] = The drug is tested on Parabacteroides merdae strain: ATCC43184 for biotransformation. The drug concentrations were measured before and after a 12-h incubation by liquid-chromatography-coupled mass spectrometry (LC–MS); conditions: 2 µM
[3] = The drug is tested on Eubacterium ventriosum strain: ATCC27560 for biotransformation. The drug concentrations were measured before and after a 12-h incubation by liquid-chromatography-coupled mass spectrometry (LC–MS); format: ADME; parameters: dose 2 uM, timepoint 0 vs 12 hours; conditions: 2 µM
[4] = The drug is tested on Bifidobacterium breve strain: DSM20213 for biotransformation. The drug concentrations were measured before and after a 12-h incubation by liquid-chromatography-coupled mass spectrometry (LC–MS); conditions: 2 µM
[5] = enterocloster bolteae, 12 h, 2 µM
Description: The drug is tested on Clostridium bolteae strain: ATCCBAA-613 for biotransformation. The drug concentrations were measured before and after a 12-h incubation by liquid-chromatography-coupled mass spectrometry (LC–MS)

[6] = The drug is tested on Eubacterium hallii strain: DSM3353 for biotransformation. The drug concentrations were measured before and after a 12-h incubation by liquid-chromatography-coupled mass spectrometry (LC–MS); conditions: anaerobutyricum hallii, 2 µM
[7] = The drug is tested on Bacteroides caccae strain: ATCC43185 for biotransformation. The drug concentrations were measured before and after a 12-h incubation by liquid-chromatography-coupled mass spectrometry (LC–MS); conditions: 2 µM
[8] = The drug is tested on Clostridium ramosum strain: DSM1402 for biotransformation. The drug concentrations were measured before and after a 12-h incubation by liquid-chromatography-coupled mass spectrometry (LC–MS); conditions: thomasclavelia ramosa, 2 µM
[9] = The drug is tested on Clostridium symbiosum strain: ATCC14940 for biotransformation. The drug concentrations were measured before and after a 12-h incubation by liquid-chromatography-coupled mass spectrometry (LC–MS); conditions: 2 µM
[10] = The drug is tested on Bacteroides fragilis strain: ATCC43859 for biotransformation. The drug concentrations were measured before and after a 12-h incubation by liquid-chromatography-coupled mass spectrometry (LC–MS); conditions: 2 µM
[11] = bacteroides thetaiotaomicron, 12 h, 2 µM
Description: The drug is tested on Bacteroides thetaiotaomicron strain: 7330 for biotransformation. The drug concentrations were measured before and after a 12-h incubation by liquid-chromatography-coupled mass spectrometry (LC–MS)

[12] = The drug is tested on Bacteroides fragilis strain: HMW615 for biotransformation. The drug concentrations were measured before and after a 12-h incubation by liquid-chromatography-coupled mass spectrometry (LC–MS); conditions: 2 µM
[13] = The drug is tested on Bacteroides ovatus strain: ATCC8483 for biotransformation. The drug concentrations were measured before and after a 12-h incubation by liquid-chromatography-coupled mass spectrometry (LC–MS); conditions: 2 µM
[14] = The drug is tested on Anaerococcus hydrogenalis strain: DSM7454 for biotransformation. The drug concentrations were measured before and after a 12-h incubation by liquid-chromatography-coupled mass spectrometry (LC–MS); conditions: 2 µM
[15] = The drug is tested on Dorea formicigenerans strain: ATCC27755 for biotransformation. The drug concentrations were measured before and after a 12-h incubation by liquid-chromatography-coupled mass spectrometry (LC–MS); conditions: 2 µM
[16] = The drug is tested on Enterococcus faecalis strain: V583 for biotransformation. The drug concentrations were measured before and after a 12-h incubation by liquid-chromatography-coupled mass spectrometry (LC–MS); conditions: 2 µM
[17] = bacteroides thetaiotaomicron, 12 h, 2 µM; remark: listed apart in the source
Description: The drug is tested on Bacteroides thetaiotaomicron strain: VPI-5482 for biotransformation. The drug concentrations were measured before and after a 12-h incubation by liquid-chromatography-coupled mass spectrometry (LC–MS)

[18] = The drug is tested on Enterobacter cancerogenus strain: ATCC35316 for biotransformation. The drug concentrations were measured before and after a 12-h incubation by liquid-chromatography-coupled mass spectrometry (LC–MS); conditions: 2 µM
[19] = The drug is tested on Bacteroides finegoldii strain: DSM17565 for biotransformation. The drug concentrations were measured before and after a 12-h incubation by liquid-chromatography-coupled mass spectrometry (LC–MS); conditions: 2 µM
[20] = The drug is tested on Blautia hansenii strain: DSM20583 for biotransformation. The drug concentrations were measured before and after a 12-h incubation by liquid-chromatography-coupled mass spectrometry (LC–MS); conditions: 2 µM

Bacterial Biotransformation [1] | Bacterial Biotransformation [2] | Bacterial Biotransformation [3] | Bacterial Biotransformation [4] | Bacterial Biotransformation [5] | Bacterial Biotransformation [6] | Bacterial Biotransformation [7] | Bacterial Biotransformation [8] | Bacterial Biotransformation [10] | Bacterial Biotransformation [11] | Bacterial Biotransformation [12] | Bacterial Biotransformation [13] | Bacterial Biotransformation [14] | Bacterial Biotransformation [15] | Bacterial Biotransformation [16] | Bacterial Biotransformation [17] | Bacterial Biotransformation [18] | Bacterial Biotransformation [19] | Bacterial Biotransformation [20] | Structure (SMILES) | Bacterial Biotransformation [9]
Compound NOT metabolized | Compound NOT metabolized | Compound NOT metabolized | Compound NOT metabolized | Compound NOT metabolized | Compound NOT metabolized | Compound NOT metabolized | Compound NOT metabolized | Compound metabolized | Compound NOT metabolized | Compound NOT metabolized | Compound NOT metabolized | Compound NOT metabolized | Compound NOT metabolized | Compound NOT metabolized | Compound NOT metabolized | Compound NOT metabolized | Compound NOT metabolized | Compound NOT metabolized | Cc1ccc(S(=O)(=O)NC(=O)NN2CC3CCCC3C2)cc1 (stereo not drawn) [GLICLAZIDE] | Compound NOT metabolized
Compound NOT metabolized | Compound metabolized | Compound metabolized | Compound NOT metabolized | Compound metabolized | Compound NOT metabolized | Compound metabolized | Compound NOT metabolized | Compound metabolized | Compound metabolized | Compound NOT metabolized | Compound metabolized | Compound NOT metabolized | Compound NOT metabolized | Compound NOT metabolized | Compound metabolized | Compound NOT metabolized | Compound metabolized | Compound NOT metabolized | COc1ccc2c(c1)c(CC(=O)O)c(C)n2C(=O)c1ccc(Cl)cc1 [INDOMETHACIN] | Compound metabolized
Compound NOT metabolized | Compound NOT metabolized | Compound NOT metabolized | Compound NOT metabolized | Compound NOT metabolized | Compound NOT metabolized | Compound NOT metabolized | Compound NOT metabolized | Compound NOT metabolized | Compound NOT metabolized | Compound NOT metabolized | Compound NOT metabolized | Compound NOT metabolized | Compound NOT metabolized | Compound NOT metabolized | Compound NOT metabolized | Compound NOT metabolized | Compound NOT metabolized | Compound metabolized | CCC(C)n1ncn(-c2ccc(N3CCN(c4ccc(OCC5COC(Cn6cncn6)(c6ccc(Cl)cc6Cl)O5)cc4)CC3)cc2)c1=O (stereo not drawn) [ITRACONAZOLE] | Compound NOT metabolized

The remaining lines, values behind:

Structure (SMILES) | Bacterial Biotransformation [1] | Bacterial Biotransformation [2] | Bacterial Biotransformation [3] | Bacterial Biotransformation [4] | Bacterial Biotransformation [5] | Bacterial Biotransformation [6] | Bacterial Biotransformation [7] | Bacterial Biotransformation [8] | Bacterial Biotransformation [10] | Bacterial Biotransformation [11] | Bacterial Biotransformation [12] | Bacterial Biotransformation [13] | Bacterial Biotransformation [14] | Bacterial Biotransformation [15] | Bacterial Biotransformation [16] | Bacterial Biotransformation [17] | Bacterial Biotransformation [18] | Bacterial Biotransformation [19] | Bacterial Biotransformation [20] | Bacterial Biotransformation [9]
CCN(CC)C(=O)C1(c2ccccc2)CC1CN (stereo not drawn) | Compound NOT metabolized | Compound NOT metabolized | Compound NOT metabolized | Compound NOT metabolized | Compound NOT metabolized | Compound NOT metabolized | Compound NOT metabolized | Compound NOT metabolized | Compound NOT metabolized | Compound NOT metabolized | Compound NOT metabolized | Compound NOT metabolized | Compound NOT metabolized | Compound NOT metabolized | Compound NOT metabolized | Compound NOT metabolized | Compound NOT metabolized | Compound NOT metabolized | Compound NOT metabolized | Compound NOT metabolized
CC1OC(OC2C(O)CC(OC3C(O)CC(OC4CCC5(C)C(CCC6C5CCC5(C)C(C7=CC(=O)OC7)CCC65O)C4)OC3C)OC2C)CC(O)C1O (stereo not drawn) | Compound metabolized | Compound metabolized | Compound NOT metabolized | Compound NOT metabolized | Compound NOT metabolized | Compound NOT metabolized | Compound NOT metabolized | Compound NOT metabolized | Compound metabolized | Compound metabolized | Compound metabolized | Compound metabolized | Compound NOT metabolized | Compound NOT metabolized | Compound NOT metabolized | Compound metabolized | Compound NOT metabolized | Compound NOT metabolized | Compound metabolized | Compound NOT metabolized
COc1cc2nc(N3CCN(C(=O)C4COc5ccccc5O4)CC3)nc(N)c2cc1OC.CS(=O)(=O)O (stereo not drawn) [DOXAZOSIN MESYLATE] | Compound NOT metabolized | Compound NOT metabolized | Compound NOT metabolized | Compound NOT metabolized | – | Compound NOT metabolized | Compound NOT metabolized | Compound NOT metabolized | Compound NOT metabolized | Compound NOT metabolized | Compound NOT metabolized | Compound NOT metabolized | Compound NOT metabolized | Compound NOT metabolized | Compound NOT metabolized | Compound NOT metabolized | Compound NOT metabolized | Compound NOT metabolized | Compound metabolized | Compound NOT metabolized
C#C[C@]1(OC(C)=O)CC[C@H]2[C@@H]3CCC4=C/C(=N/O)CC[C@@H]4[C@H]3CC[C@@]21CC [NORGESTIMATE] | Compound NOT metabolized | Compound NOT metabolized | Compound NOT metabolized | Compound NOT metabolized | Compound NOT metabolized | Compound NOT metabolized | Compound NOT metabolized | Compound NOT metabolized | Compound NOT metabolized | Compound NOT metabolized | Compound NOT metabolized | Compound NOT metabolized | Compound NOT metabolized | Compound NOT metabolized | Compound NOT metabolized | Compound NOT metabolized | Compound NOT metabolized | Compound metabolized | Compound metabolized | –
